Test results as given in patent publication US20020071842A1, “Soluble CD1 compositions and uses thereof” (priority 2000, published 2002).
“Also recorded” adds a separate entry of the source.

System: 24.8.A hybridoma
Experiment: Plate-bound mCD1d fusion protein hybridoma stimulation assay (IL-2 ELISA)
Assay type: cell-based, mouse
Details: for IL-2 secretion: 24.8 A NKT hybridoma, plate-bound mCD1d-IgGFc2a fusion protein preincubated with lipid antigen; for IL-2 response to mCD1d fusion protein pre-treated with purified or synthetic lipid: compared to untreated or buffer treated fusion protein
Procedure, shortened: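 Protein A plates were loaded with 400-600 ng/well mCD1d fusion protein, then given lipid antigen (40:1 molar ratio to fusion protein unless specified) in PBS pH 7.2 for 24-48 h at 37 °C. After washing, 1×10^5 hybridoma cells/well were added for 16-20 h at 37 °C. Secreted IL-2 measured by sandwich ELISA against a murine IL-2 standard curve.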

Row | reduction of IL-2 secretion by phospholipase treatment of the antigen (PI treated with PLC or PLD prior to pre-incubation with the mCD1d fusion protein) | Compound | IL-2 secretion | IL-2 response to mCD1d fusion protein pre-treated with purified or synthetic lipid (24.8.A hybridoma) | IL-2 produced in the presence of the 19G11 anti-mCD1d mAb (24.8.A hybridoma, representative experiment, 19G11 blocking antibody included) | mean IL-2 secreted (24.8.A hybridoma, representative experiment, mCD1d fusion protein pre-treated with antigen)
1 | – | β-galactosylceramide [β-GalCer] | + (“+” indicates 50-250 pg/ml) | – | – | –
2 | – | CCCCCCCCCCCCCCCCCCCCCCCCCC(=O)N[C@@H](CO[C@H]1O[C@H](CO)[C@H](O)[C@H](O)[C@H]1O)[C@H](O)[C@H](O)CCCCCCCCCCCCCC [α-GalCer, α-galactosylceramide] | + (“+” indicates 50-250 pg/ml) | only a slightly enhanced response; also recorded: little IL-2 was secreted | – | –
3 | – | unglycosylated ceramide | + (“+” indicates 50-250 pg/ml) | – | – | –
4 | approximately 70% | phosphatidylinositol [PI] | +++ (“+++” indicates greater than 1000 pg/ml IL-2) | marked increase of IL-2 production; also recorded: significantly enhanced IL-2 release | no detectable IL-2 | 4,746 pg/ml
